A short description of this data set: Human HepG2 cell viability assay in 384 well format. It is filed as toxicity, cell-based. Further details: dose 125 nL, time 70.5 hour; cytotoxicity at 70.5 h: concentration not given beside the values. Particulars: HepG2 cells, read-out: Inhibition.
For the molecule `Cc1cc(NC(=O)[C@H]2CCCCN2C(=O)OC(C)(C)C)no1`, the cytotoxicity at 70.5 h was -2.01%.

Regarding `CSCC(C)(O)CNC(=O)c1cccc(Cl)c1Cl` (stereo not drawn), the cytotoxicity at 70.5 h is -5.93%. The same measure for `N#Cc1ccnc(N2CCN(CC(O)c3ccccc3Cl)CC2)c1` (stereo not drawn): -0.0236%; for `O=C(CC1CCCO1)Nc1cccc(N2CCN(CC3CC3)CC2)c1` (stereo not drawn): 0.099%; for `CCN1CCN(C(=O)C2CCCc3[nH]ncc32)CC1` (stereo not drawn): 1.54%. As to `Cc1cn(CC(=O)NC2CCC(C(=O)O)CC2)c2ccccc12` (stereo not drawn), the cytotoxicity at 70.5 h was -6.01%.

As to `Cc1cc(C)c2c(c1)C(NCc1nnc3n1CCC3)CCCO2` (stereo not drawn), the cytotoxicity at 70.5 h is -5.63%.

Consider `Cc1n[nH]cc1CNC(=O)[C@H]1CCCCN1C(=O)OC(C)(C)C`, for which the cytotoxicity at 70.5 h was 8.82%. For `OC(CN(Cc1ccccc1)Cc1cccnc1)c1cccs1` (stereo not drawn), the cytotoxicity at 70.5 h was determined as 10%.

As for `Cc1cccc2c1OCCCC2NCc1nnc2n1CCCCC2` (stereo not drawn), the cytotoxicity at 70.5 h was -7.8%. With `CCN(CC)C(=O)N1CCN(C(=O)C2CCCc3[nH]ncc32)CC1` (stereo not drawn) the figure was -3.25%. The same measure for `O=C(C1CCCc2[nH]ncc21)N1CCCC2(C1)OCCO2` (stereo not drawn): -9.5%. For `CN1CCN(c2cc(CNCc3cccc4c3OCO4)ccn2)CC1`, the cytotoxicity at 70.5 h was -8.22%.

Turning to `Cc1cnn(CC2CN(CCCS(=O)(=O)N(C)C)CCO2)c1` (stereo not drawn), the cytotoxicity at 70.5 h is -10.7%. With `CC(C(=O)NCc1ccnc(OCC(F)(F)F)c1)n1cncn1` (stereo not drawn) the figure was -2.68%; with `Cc1[nH]ncc1CCCNC(=O)Nc1ccc(F)cc1`, 3.38%. With `O=C(c1cccnc1-n1cncn1)N1CCN(c2ccccc2)CC1` the figure was -8.14%; with `COc1ccc(Oc2ccc(CNC(=O)C(C)n3cncn3)cn2)cc1` (stereo not drawn), -0.159%. With `CC(C)(C)c1nnc(CN2CCN(C(=O)N3CCCCC3)CC2)o1` the figure was -3.76%; with `CC(C)CCN1CCN(C(=O)c2cccnc2-n2cncn2)CC1`, -3.48%; with `Cc1ccc(C(=O)NCCNCC2CNc3ccnn3C2)cc1F` (stereo not drawn), 1.33%. With `CCCN1CCN(C(=O)c2cccnc2-n2cncn2)CC1`, the cytotoxicity at 70.5 h was -2.43%.

As for `O=C(c1cccnc1-n1cncn1)N1CCN(C2CCCC2)CC1`, the cytotoxicity at 70.5 h is -5.59%. As for `Cc1[nH]ncc1CCCNC(=O)Nc1ccc2c(c1)OC1(CCCC1)O2`, the cytotoxicity at 70.5 h was -2.92%. For `CCN(C(=O)CSc1ccc(C(F)(F)F)cn1)C1CC1`, the cytotoxicity at 70.5 h stood at 7.64%. In the case of `Cc1ccc(C(=O)NCCNCC2CNc3ccnn3C2)cc1` (stereo not drawn), the cytotoxicity at 70.5 h was -0.325%. Consider `CC(C)(C)c1nnc(CN2CCN(C(=O)CC3CCCCC3)CC2)o1`, for which the cytotoxicity at 70.5 h was -2.8%.

In the case of `Cc1cnn(CC2CCCN2CC(=O)N(C)Cc2cnn(C)c2)c1` (stereo not drawn), the cytotoxicity at 70.5 h was -1.69%.

In the case of `Cc1[nH]ncc1CCCNC(=O)Nc1ccccc1`, the cytotoxicity at 70.5 h was 14.5%. The same measure for `CCOCC(O)CN1CCN(C(=O)c2ccc(N(C)C)nc2)CC1` (stereo not drawn): 1.39%; for `CC(O)CN1CCN(C(=O)c2ccnc(N(C)C)c2)CC1` (stereo not drawn): 14.1%. The same measure for `CCCc1nc(C)c(C(=O)NS(=O)(=O)c2cccnc2)s1`: -0.303%. The same measure for `CN(CCn1cnnc1)C(=O)c1ccnc(OC2CCC2)c1`: 16.2%; for `COCC(=O)NCc1cccc(OCCN(C)C2CCOCC2)c1`: -0.957%; for `Cc1cccc(C(=O)NCCNCC2CNc3ccnn3C2)c1` (stereo not drawn): -1.43%. With `CCCc1nc(CN(C)CC2CCN(CCO)CC2)no1`, the cytotoxicity at 70.5 h is 14.7%. With `CC(=O)N1CCC(c2nc(Cc3ccccc3)no2)C1` (stereo not drawn), the cytotoxicity at 70.5 h was -3.88%. Take `Cc1nc(C)n(CC2CCCN2CC(=O)N(C)Cc2ccc(C)o2)n1` (stereo not drawn): the cytotoxicity at 70.5 h was -4.56%. With `CN(CCOc1cccc(CNS(C)(=O)=O)c1)C1CCOCC1`, the cytotoxicity at 70.5 h was 1.39%. The same measure for `CN(Cc1cnn(C)c1)C(=O)c1ccnc(OC2CCC2)c1`: 15.8%; for `CCc1noc(CN(C)C(=O)c2ccnc(OC3CCC3)c2)n1`: -0.589%; for `CC(=O)N1CCCN(Cc2nnc(C(C)(C)C)o2)CC1`: 5.23%. `Cn1nc(C(=O)N(CC(F)(F)F)c2cccc(Cl)c2)ccc1=O`: the cytotoxicity at 70.5 h was determined as 9.92%. On to `Cc1cccc2c(CCNC(=O)NCC[S+](C)[O-])c[nH]c12` (stereo not drawn), for which the cytotoxicity at 70.5 h came out at 0.892%. `Cc1nc(C(=O)N(C)C2CC(=O)N(Cc3ccccc3)C2=O)cs1` (stereo not drawn): the cytotoxicity at 70.5 h is -5.65%. With `CCCc1nc(CNc2cc(CS(C)(=O)=O)ccc2Cl)no1` the figure was -0.135%; with `CCN(Cc1cnn(C)c1)S(=O)(=O)N1CCCC1c1ccco1` (stereo not drawn), 3.59%.

As to `COCC(C)(C#N)NC(=O)COc1ccccc1` (stereo not drawn), the cytotoxicity at 70.5 h is -0.947%.

For the molecule `COC(=O)c1cc(C(=O)N2CCc3ccc(F)cc3C2C)ccn1` (stereo not drawn), the cytotoxicity at 70.5 h is -0.61%.

`CCC(CO)NC(=O)Cc1ccc(NC(=O)CC2=CCCCC2)cc1` (stereo not drawn): the cytotoxicity at 70.5 h was -3.34%. With `CN1CC(Nc2ccc(Br)cc2C#N)CCC1=O` (stereo not drawn) the figure was -0.708%; with `COc1ccnc(N(C)Cc2ccccc2O)n1`, 1.42%; with `CCCN(CC1CC1)S(=O)(=O)c1ccc(NC(C)=O)cc1`, -1.65%. The same measure for `CN(CCN1CCOCC1)S(=O)(=O)CC1CCCC1`: -0.906%; for `CN(C(=O)c1ccc[nH]1)C1CC(=O)N(Cc2ccccc2)C1=O` (stereo not drawn): -4.14%; for `Cc1cc(C)n(CC2CCCCN2C(=O)c2sccc2C#N)n1` (stereo not drawn): 1.28%. With `Cc1ccc(C2CCCN2S(=O)(=O)N(C)Cc2cnn(C)c2)o1` (stereo not drawn) the figure was 13.3%; with `COc1ccc(CN2CCN(C(C)=O)CC2)cc1SC(F)(F)F`, 0.0728%; with `N#Cc1c(N2CCCN(C3CCOCC3)CC2)nc2ccccn12`, -2.26%. For the molecule `CC(=O)N1CCC(Nc2ccc(Br)cc2C#N)C1` (stereo not drawn), the cytotoxicity at 70.5 h was found to be 4.92%. The same measure for `CN(c1ncnc2c1CCC2)C1CCCN(c2cccnn2)C1` (stereo not drawn): 1.68%; for `Cc1ccc(F)cc1NC(=O)CCn1cncn1`: -8.38%. With `Cc1cc(F)ccc1NCC(=O)NCC(F)(F)F` the figure was 0.946%; with `CC(=O)Nc1nc(C(=O)NCCOc2ccccc2F)cs1`, -15.5%; with `CCN(CC)Cc1ccccc1NC(=O)N(C)Cc1ccc(OC)cc1`, -15.6%. As to `Cn1ccnc1COc1ccc(CSc2nnnn2C)cc1`, the cytotoxicity at 70.5 h was -11.4%. On to `Cc1cc(C(=O)N2CCC(N3CCNC3=O)CC2)nn1C(C)(C)C`, for which the cytotoxicity at 70.5 h is -16.5%. With `Cc1cnn(CC2CC2)c1NC(=O)c1cccnc1O` the figure was 14.4%; with `NC(=O)NC(=O)CCN1C(=O)CC(Cc2ccc(F)cc2)C1=O` (stereo not drawn), -13.2%. With `CCC(NC(=O)CS(=O)(=O)C1CCCC1)c1cc(F)ccc1F` (stereo not drawn) the figure was -7.05%.

Consider `CC(Cn1cncn1)NC(=O)Nc1ccc(F)cc1OCC1CC1` (stereo not drawn), for which the cytotoxicity at 70.5 h was -9.35%.

Turning to `CC(CNC(=O)c1cnccn1)Oc1cccc(Br)c1` (stereo not drawn), the cytotoxicity at 70.5 h is 12.9%.

For `CNC(=O)c1ccc(OC)c(NCc2noc(-c3ccsc3)n2)c1`, the cytotoxicity at 70.5 h is -11.3%. The same measure for `COCCn1cc(NCc2cccc3cn[nH]c23)cn1`: -5.47%; for `COc1ccc(C(N)=O)cc1NCc1noc(-c2ccsc2)n1`: -10.8%. With `CN(c1ncnc2sccc12)C1CCCN(c2cccnn2)C1` (stereo not drawn) the figure was -13.9%; with `CN(C(=O)CCc1ccsc1)S(C)(=O)=O`, 6.34%; with `Cc1ccc(OC(C)CNC(=O)c2c[nH]nn2)cc1` (stereo not drawn), -7.76%. For the molecule `O=C(c1cnccn1)N1CCN(c2ccnc3ccsc23)CC1`, the cytotoxicity at 70.5 h was -13.2%. For `Cc1noc(CCNS(=O)(=O)N2CCCC2c2ccco2)n1` (stereo not drawn), the cytotoxicity at 70.5 h is -8.16%.

For the molecule `Cc1cccc(-c2nnc(C(C)NCCn3cc(C)cn3)o2)c1` (stereo not drawn), the cytotoxicity at 70.5 h was -7.5%. For the molecule `CC(C)c1nc2n(n1)CC(NCCc1cccs1)CC2` (stereo not drawn), the cytotoxicity at 70.5 h was -5.42%. Consider `CNS(=O)(=O)c1cccc(CNC(=O)c2cnn(C)c2C)c1`, for which the cytotoxicity at 70.5 h was -11.8%. With `Cc1noc(CS(=O)(=O)C/C=C/c2ccccc2)n1` the figure was -19.1%. The same measure for `CC(CCNC(=O)NCCc1ccc(S(N)(=O)=O)cc1)c1ccccc1` (stereo not drawn): -8.25%; for `CC(CCNC(=O)NCCNc1cnccn1)c1ccccc1` (stereo not drawn): -13.6%. The same measure for `CS(=O)(=O)NC1CCN(C(=O)CCn2cccn2)CC1`: -9.56%; for `Cc1cc(SC(C)(C)C)ccc1NCC(=O)NC(N)=O`: -9.41%. For the molecule `NC(=O)CCN(C(=O)c1cccc2c1OCO2)c1ccccc1`, the cytotoxicity at 70.5 h was -14%. The same measure for `CCc1ccc(C(=O)O)cc1S(=O)(=O)N(C)c1cccc(C#N)c1`: -6.98%; for `Cc1ccc(C(=O)O)cc1S(=O)(=O)N(C)c1cccc(C#N)c1`: -7.91%; for `CC(Cn1cccn1)C(=O)N1CCC(Nc2cccnn2)CC1` (stereo not drawn): -10%.

On to `CCc1ccc(C(=O)O)cc1S(=O)(=O)N(C)c1cccc(C)c1`, for which the cytotoxicity at 70.5 h was -7.54%. The same measure for `Cc1c(I)cccc1C(=O)NCc1ncc[nH]1`: -0.0896%. On to `Cc1nn(CC(=O)Nc2cccc(F)c2)c(N)c1C#N`, for which the cytotoxicity at 70.5 h is -5.02%. The same measure for `Cc1ccc(C)c(NC(=O)Cn2nc(C)c(C#N)c2N)c1`: -10.2%. As to `CC(CC#N)N(C)Cc1ccccc1F` (stereo not drawn), the cytotoxicity at 70.5 h was -9.07%. Consider `Cc1oc(CN(C)C(=O)c2ccc(C(F)(F)F)cc2)cc1C(=O)O`, for which the cytotoxicity at 70.5 h is -6.23%. The same measure for `Cc1cc(CN(Cc2ccccc2)C(C)CN2CCOCC2)no1` (stereo not drawn): -5.58%.

For the molecule `CNC(=O)c1cccc(CNC(C)c2cc(Cl)ccc2OC)c1` (stereo not drawn), the cytotoxicity at 70.5 h was -2.03%. The same measure for `Fc1ccc(NCc2ncc[nH]2)cc1Br`: -7.28%. Take `CNC(=O)C(C)(C)CNC(=O)Nc1cc(C)ccn1`: the cytotoxicity at 70.5 h was -7.88%. With `CC(C)c1nc2n(n1)CC(NCC(=O)N(C)Cc1cccs1)CC2` (stereo not drawn) the figure was -13.3%.

The record behind these values is ChEMBL document CHEMBL3507680, “University of Dundee, Gates Library screen for HepG2 cell viability”.
